Assay results: US7915420B2, “Aryl piperidine amides” (Janssen Pharmaceutica NV, priority 2003, dated 2011)

Target: T1, human glycine transporter-2 (GlyT2) (Homo sapiens, UniProt Q9Y345)
T1 construct: The entire coding region of the human GlyT2 cDNA was cloned into the mammalian expression vector pCINeo; expressed in transfected cells; host or cells: Cos-7 cells (African green monkey kidney), stably transfected, vector pCINeo, G418 selection
T1 sequence (Q9Y345 1-797): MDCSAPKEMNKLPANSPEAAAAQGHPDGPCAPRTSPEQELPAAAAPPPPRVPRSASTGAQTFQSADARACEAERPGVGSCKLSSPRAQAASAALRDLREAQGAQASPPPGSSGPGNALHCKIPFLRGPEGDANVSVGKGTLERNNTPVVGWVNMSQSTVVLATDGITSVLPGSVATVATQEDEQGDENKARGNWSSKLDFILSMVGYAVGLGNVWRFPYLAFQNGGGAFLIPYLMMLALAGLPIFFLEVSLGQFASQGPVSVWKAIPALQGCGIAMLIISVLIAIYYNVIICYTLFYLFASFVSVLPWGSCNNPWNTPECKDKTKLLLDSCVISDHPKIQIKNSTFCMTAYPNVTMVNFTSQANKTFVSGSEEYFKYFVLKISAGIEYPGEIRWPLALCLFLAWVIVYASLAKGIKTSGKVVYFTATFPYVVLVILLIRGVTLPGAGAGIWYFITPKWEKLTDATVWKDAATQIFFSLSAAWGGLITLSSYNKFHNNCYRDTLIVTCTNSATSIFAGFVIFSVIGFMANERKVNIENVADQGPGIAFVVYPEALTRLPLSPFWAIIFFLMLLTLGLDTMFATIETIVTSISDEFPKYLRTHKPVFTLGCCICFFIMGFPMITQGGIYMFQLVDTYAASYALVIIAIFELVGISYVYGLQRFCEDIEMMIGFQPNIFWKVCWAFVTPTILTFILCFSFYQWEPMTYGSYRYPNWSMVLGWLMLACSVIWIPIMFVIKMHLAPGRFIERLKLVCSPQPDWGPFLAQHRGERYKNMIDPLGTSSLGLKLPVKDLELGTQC
Assay: GlyT2 inhibitory activity: inhibition of [14C]-glycine uptake in COS-7 cells transfected with human GlyT2
Assay type: cell-based
Conditions: Cos-7 cells stably transfected with human GlyT2; 20 μM 14C-glycine, 2 h at 37° C.
Protocol: GlyT2 antagonist activity of representative compounds of the invention was determined in accordance with the assay described in the Examples and by measuring the ability of compounds to inhibit the uptake of [^14C]-glycine in COS-7 cells transfected with the human glycine transporter-2 (GlyT2). The GlyT2 antagonist activities of these representative compounds are set forth hereinafter in Table 1.
Cos-7 cells (African green monkey, kidney) from American Type Culture Collection were grown in DMEM supplemented with 10% fetal bovine serum. The entire coding region of the human GlyT2 cDNA was cloned into the mammalian expression vector pCINeo, and then stably transfected into Cos-7 cells. Transfection was performed essentially as described by T. W. Lovenberg et al. (Mol. Pharmacol. 1999, 55:1101-1107). Cells are grown to 70-80% confluence, removed from the plate with trypsin, and pelleted in a clinical centrifuge. The pellet is resuspended in 400 μL complete medium and transferred to an electroporation cuvette with a 0.4 cm gap between the electrodes (Bio-Rad, 165-2088). One microgram of supercoiled GlyT2 cDNA is added to the cells, and the suspension is mixed. The voltage for the electroporation is set at 0.25 kV, and the capacitance is set at 960 μF. After electroporation, the cuvette contents are diluted to 10 mL with complete medium, and 0.5 mL, 1.0 mL, 2.0 mL and remainder (−6.5 mL) portions are plated onto four 10-cm dishes. The cells are incubated 24 h before adding 600 μg/mL G418. Colonies that survive selection are isolated and tested for GlyT2 expression.
The day before the assay, the GlyT2 expressing cells were plated into 96-well scintillating microplates (Amersham, RPNQ 0160) at a density of approximately 20,000 cells per well. Cells were grown overnight at 37° C. in 5% CO2 and then washed once with 37° C. HEPES buffered saline (HBS: 150 mM NaCl, 20 mM HEPES, 1 mM CaCl2, 10 mM glucose, 5 mM KCl, 1 mM MgCl2; pH 7.4). Eighty microliters of 37° C. HBS was subsequently added to each well. Test solutions of GlyT2 inhibitors were prepared in HBS from DMSO stock solutions, and 5 μL of test solution was added to each test well. Total transport and non-specific background were determined by adding 5 μL HBS or 5 μL 2 M glycine, respectively, to the appropriate control wells. Plates were then left at room temperature for 5 min before the addition of 20 μL of 100 μM ^14C-glycine (NEN, NEC 048H) to each well for a final concentration of 20 μM. Plates were incubated for 2 h at 37° C. with 5% CO2. After 2 h the reaction mixtures were removed by aspiration, and the plates were washed once with ice-cold HBS. Plates were sealed with TopSeal (Packard, 6005185) and counted on a Packard TopCount® scintillation counter.

Q: With `CC(C)Oc1cccc(NCCN(C)Cc2cccc(C(=O)N3CCCCC3)c2)c1` [Example 30, [3-({[2-(3-Isopropoxy-phenylamino)-ethyl]-methyl-amino}-methyl)-phenyl]-piperidin-1-yl-methanone] as the compound, how does the IC50 read?
A: The IC50 was 1 µM.

Q: How did the IC50 turn out when `CC(C)Oc1cccc(N(C)CCN(C)Cc2cccc(C(=O)N3CCCCC3)c2)c1` [Example 31, {3-[({2-[(3-Isopropoxy-phenyl)-methyl-amino]-ethyl}-methyl-amino)-methyl]-phenyl}-piperidin-1-yl-methanone] was run?
A: The IC50 was 1.6 µM.

Q: For `CC(C)Oc1ccccc1CCCNCc1cccc(C(=O)N2CCCCC2)c1` [Example 33, (3-{[3-(2-Isopropoxy-phenyl)-propylamino]-methyl}-phenyl)-piperidin-1-yl-methanone], which IC50 is on record?
A: The IC50 was 4 µM.

Q: `CC(C)Oc1ccccc1NCCNCc1cc(C(=O)N2CCCCC2)cs1` [Example 34, (5-{[2-(2-Isopropoxy-phenylamino)-ethylamino]-methyl}-thiophen-3-yl)-piperidin-1-yl-Methanone] was tested. Which IC50 did it give?
A: The IC50 was 3.1 µM.

Q: Which IC50 does the source give for `Nc1ccccc1NCCNCc1cc(C(=O)N2CCCCC2)cs1` [Example 35, (5-{[2-(2-Amino-phenylamino)-ethylamino]-methyl}-thiophen-3-yl)-piperidin-1-yl-methanone] here?
A: The IC50 was greater than 10 µM.

Q: `CC(C)Nc1ccccc1NCCNCc1cc(C(=O)N2CCCCC2)cs1` [Example 36, (5-{[2-(2-Isopropylamino-phenylamino)-ethylamino]-methyl}-thiophen-3-yl)-piperidinyl-methanone] was tested. Which IC50 did it give?
A: Its IC50 is 3.1 µM.

Q: How did the IC50 turn out when `CC(C)Oc1ccccc1NCCNCc1cccc(C(=O)N2CCCC2)c1` [Example 38, (3-{[2-(2-Isopropoxy-phenylamino)-ethylamino]-methyl}-phenyl)-pyrrolidin-1-yl-methanone] was run?
A: Its IC50 is 3 µM.

Q: `CC(C)Oc1ccccc1NCCNCc1cccc(C(=O)N2CCCCCC2)c1` [Example 39, Azepan-1-yl-(3-{[2-(2-isopropoxy-phenylamino)-ethylamino]-methyl}-phenyl)methanone.] was tested. Which IC50 did it give?
A: The IC50 was 1.8 µM.

Q: How did the IC50 turn out when `CC(C)Oc1ccccc1NCCNCc1cccc(C(=O)N2CCC(O)CC2)c1` [Example 41, (4-Hydroxy-piperidin-1-yl)-(3-{[2-(2-isopropoxy-phenylamino)-ethylamino]-methyl}-phenyl)-methanone] was run?
A: The IC50 was greater than 10 µM.
